Results on nine compounds are retold here after patent US7138241B2, “Hybridoma, an antibody resistant to an interfering substance, and a kit for immunological analysis” (Japan Envirochemicals, Ltd., priority 2001, dated 2006).

The assay concerns EE2-227 antibody. Kind of assay: Cross-reactivity test with the EE2-ELISA kit. The following applies: from IC50 (50% degree of inhibition) of each estrogen's standard curve relative to EE2. The class given is binding, mouse. Here is the method: 100 μL/well of a quantification sample or the “EE2 standard solution” (both are 10% methanol solutions) and 100 μL/well of the “antigen-enzyme conjugate solution” were mixed on a “mixing microplate”.
The “mixed solution” prepared in (3) was pipetted into the “anti-EE2 monoclonal antibody-immobilized plate” in a volume of 100 μl/well and reacted at room temperature for 60 minutes.
The “coloration reagent” prepared in (7) was added in the volume of 100 μL/well, the mixture was reacted at room temperature for 30 minutes, and the “coloration-stop solution” was added in a volume of 100 μL/well to stop the reaction.
The absorbance was measured at a wavelength of 450 nm with a plate reader, and the concentration of EE2 in the sample was determined from a standard curve.
The EE2 concentration was plotted on the ordinate [sic], and the ratio of the absorbance at each EE2 concentration to the absorbance at the concentration of 0 μg/L EE2 (degree of inhibition, B/BO %) was plotted on the abscissa [sic].
For the estrogens shown in [Table 2], the respective standard curves were prepared in the same manner as in Example 4, and the EE2 concentration (IC50) at which the degree of inhibition was 50% was determined and the cross-reactivity was determined from the following equation, and the results are shown in [Table 2]. Cross-reactivity (%)=[…]

Turning to `C[C@]12CC[C@@H]3c4ccc(O)cc4CC[C@H]3[C@@H]1CC[C@@H]2O` [17β-Estradiol (E2), 17β-Estradiol], the “Cross-reactivity (%) of EE2-227 antibody” value is reported as less than 0.2%.

As for `C#C[C@]1(O)CC[C@H]2[C@@H]3CCc4cc(O)ccc4[C@H]3CC[C@@]21C` [Ethynylestradiol (EE2), Ethynylestradiol], the “Cross-reactivity (%) of EE2-227 antibody” value was 100.0%.

For `C[C@]12CC[C@@H]3c4ccc(O)cc4CC[C@H]3[C@@H]1C[C@@H](O)[C@@H]2O` [Estriol (E3), Estriol], the “Cross-reactivity (%) of EE2-227 antibody” value is less than 0.2%.

On to `C[C@]12CC[C@@H]3c4ccc(OS(=O)(=O)O)cc4CC[C@H]3[C@@H]1CC[C@@H]2O[C@@H]1O[C@H](C(=O)O)[C@@H](O)[C@H](O)[C@H]1O` [E2-3-sulfate-17-glucuronide], for which the “Cross-reactivity (%) of EE2-227 antibody” value is given as less than 0.2%.

Turning to `COc1cc2c(cc1O)CC[C@@H]1[C@@H]2CC[C@]2(C)C(=O)CC[C@@H]12` [2-Methoxy E1], the “Cross-reactivity (%) of EE2-227 antibody” value is on record as less than 0.2%.

For the compound `C[C@]12CC[C@@H]3c4ccc(O)cc4CC[C@H]3[C@@H]1C[C@H](O)[C@@H]2O` [16-Epi-E3], the “Cross-reactivity (%) of EE2-227 antibody” value is reported as less than 0.2%.

Regarding `C[C@]12CC[C@@H]3c4ccc(O)cc4CC[C@H]3[C@@H]1CC[C@@H]2O[C@@H]1O[C@H](C(=O)O)[C@@H](O)[C@H](O)[C@H]1O` [E2-17-glucuronide], the “Cross-reactivity (%) of EE2-227 antibody” value is given as less than 0.2%.

Take `C[C@]12CC[C@@H]3c4ccc(O)cc4CC[C@H]3[C@@H]1C[C@@H](O[C@@H]1O[C@H](C(=O)O)[C@@H](O)[C@H](O)[C@H]1O)[C@@H]2O` [E3-16-glucuronide]: the “Cross-reactivity (%) of EE2-227 antibody” value is reported as less than 0.2%.

For `C[C@]12CC[C@@H]3c4ccc(O[C@@H]5O[C@H](C(=O)O)[C@@H](O)[C@H](O)[C@H]5O)cc4CC[C@H]3[C@@H]1CC[C@@H]2O` [E2-3-glucuronide], the “Cross-reactivity (%) of EE2-227 antibody” value is given as less than 0.2%.
